Read-outs that look alike come from different tables or passages of the source.
Assays:
human orexin 2 receptor = human orexin 2 receptor (Homo sapiens (Human), UniProt O43614); assay: Human orexin 2 receptor radioligand binding (competitive, [3H]-EMPA, HEK293 cell preparations)
rat orexin 1 receptor = rat orexin 1 receptor (Rattus norvegicus, UniProt P56718); assay: Rat orexin 1 receptor radioligand binding (competitive, [3H]-SB674042, HEK293 cell preparations)
human orexin 1 receptor = human orexin 1 receptor (Homo sapiens (Human), UniProt O43613); assay: Human orexin 1 receptor radioligand binding (competitive, [3H]-SB674042, CHO cell preparations)
[1] = human orexin 2 receptor, [3H]-EMPA competition binding, read-out: hOX2 Ki (nm)
[2] = rat orexin 1 receptor, [3H]-SB674042 competition binding, read-out: rOX1 Ki (nm)
[3] = human orexin 1 receptor, [3H]-SB674042 competition binding, read-out: hOX1 Ki (nm)

Chain of human orexin 1 receptor (O43613 whole entry): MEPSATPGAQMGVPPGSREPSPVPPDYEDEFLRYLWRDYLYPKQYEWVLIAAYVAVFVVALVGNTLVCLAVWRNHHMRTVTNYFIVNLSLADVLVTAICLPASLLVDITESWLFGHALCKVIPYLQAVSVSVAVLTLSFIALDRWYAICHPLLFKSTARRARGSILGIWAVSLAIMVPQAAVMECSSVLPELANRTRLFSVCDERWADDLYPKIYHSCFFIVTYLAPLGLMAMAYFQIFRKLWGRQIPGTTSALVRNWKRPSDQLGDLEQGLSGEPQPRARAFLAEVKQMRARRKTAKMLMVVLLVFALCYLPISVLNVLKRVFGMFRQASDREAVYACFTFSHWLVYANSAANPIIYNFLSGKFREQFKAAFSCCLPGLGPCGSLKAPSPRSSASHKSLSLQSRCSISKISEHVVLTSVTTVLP
Chain of human orexin 2 receptor (O43614 whole entry): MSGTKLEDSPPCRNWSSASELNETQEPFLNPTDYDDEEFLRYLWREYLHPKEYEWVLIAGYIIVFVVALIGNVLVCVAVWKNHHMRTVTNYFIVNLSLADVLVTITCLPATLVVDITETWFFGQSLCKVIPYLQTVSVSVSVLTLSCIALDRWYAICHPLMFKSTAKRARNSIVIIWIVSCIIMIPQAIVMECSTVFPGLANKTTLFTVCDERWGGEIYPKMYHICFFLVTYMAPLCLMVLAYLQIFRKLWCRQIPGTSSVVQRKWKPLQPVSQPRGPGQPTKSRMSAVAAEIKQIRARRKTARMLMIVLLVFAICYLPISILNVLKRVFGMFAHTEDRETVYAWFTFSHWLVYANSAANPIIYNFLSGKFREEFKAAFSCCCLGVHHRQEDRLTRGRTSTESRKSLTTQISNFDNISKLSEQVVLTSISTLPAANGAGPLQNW

Row | SMILES | Ki (human orexin 2 receptor; hOX2 Ki (nm)) [nM] | Ki (rat orexin 1 receptor; rOX1 Ki (nm)) [nM] | Ki (human orexin 1 receptor; hOX1 Ki (nm)) [nM] | Ki (human orexin 2 receptor; [1]) [nM] | Ki (rat orexin 1 receptor; read-out: rOX1 Ki (nm)) [nM] | Ki (human orexin 1 receptor; read-out: hOX1 Ki (nm)) [nM] | Ki (rat orexin 1 receptor; [2]) [nM] | Ki (human orexin 1 receptor; [3]) [nM]
1 | O=C(c1cccc(F)c1-c1ncccn1)N1C2CCC1C(Nc1ccc(C(F)(F)F)cn1)C2 (racemic) [Example 192, (±)-(3-fluoro-2-(pyrimidin-2-yl)phenyl)(2-((5-(trifluoromethyl)pyridin-2-yl)amino)-7-azabicyclo[2.2.1]heptan-7-yl)methanone] | 1500 | 60 | 52 | – | – | – | – | –
2 | Cc1nc(C(=O)N2C3CCC2C(COc2ccccn2)C3)c(-c2ccccc2)s1 (racemic) [Example 92, (±)-(2-methyl-5-phenylthiazol-4-yl)(2-((pyridin-2-yloxy)methyl)-7-azabicyclo[2.2.1]heptan-7-yl)methanone] | – | 20 | 11 | 218 | – | – | – | –
3 | O=C(c1cc(F)ccc1-c1ncccn1)N1[C@@H]2CC[C@H]1[C@H](Nc1cnc(C(F)(F)F)cn1)C2 [Example 243, (5-fluoro-2-(pyrimidin-2-yl)phenyl)((1S,2R,4R)-2-((5-(trifluoromethyl)pyrazin-2-yl)amino)-7-azabicyclo[2.2.1]heptan-7-yl)methanone] | – | – | – | 723 | 34 | 45 | – | –
4 | O=C(c1cccc(F)c1-c1ncco1)N1[C@@H]2CC[C@H]1[C@H](Nc1cnc(C(F)(F)F)cn1)C2 [Example 260, (3-fluoro-2-(oxazol-2-yl)phenyl)((1S,2R,4R)-2-((5-(trifluoromethyl)pyrazin-2-yl)amino)-7-azabicyclo[2.2.1]heptan-7-yl)methanone] | – | – | – | 519 | 14 | 10 | – | –
5 | O=C(c1cccc(F)c1-c1ncco1)N1[C@@H]2CC[C@H]1[C@H](Nc1ncc(C(F)(F)F)cn1)C2 [Example 284, (3-fluoro-2-(oxazol-2-yl)phenyl)((1S,2R,4R)-2-((5-(trifluoromethyl)pyrimidin-2-yl)amino)-7-azabicyclo[2.2.1]heptan-7-yl)methanone] | – | – | – | 1700 | 29 | 27 | – | –
6 | Cc1cccc(C(=O)N2[C@@H]3CC[C@H]2[C@H](Nc2ncc(C(F)(F)F)cn2)C3)c1I [Example 276, (2-iodo-3-methylphenyl)((1S,2R,4R)-2-((5-(trifluoromethyl)pyrimidin-2-yl)amino)-7-azabicyclo[2.2.1]heptan-7-yl)methanone] | – | – | – | 2500 | – | 97 | 133 | –
7 | Cc1ccc(-c2ncccn2)c(C(=O)N2C3CCC2C(COc2ccc(F)cn2)C3)c1 (racemic) [Example 33, (±)-(2-(((5-fluoropyridin-2-yl)oxy)methyl)-7-azabicyclo[2.2.1]heptan-7-yl)(5-methyl-2-(pyrimidin-2-yl)phenyl)methanone] | – | – | – | 39 | – | – | 15 | 9
8 | CCOc1ncc(Br)cc1C(=O)N1C2CCC1C(COc1ccccn1)C2 (racemic) [Example 157, (±)-(5-bromo-2-ethoxypyridin-3-yl)(2-((pyridin-2-yloxy)methyl)-7-azabicyclo[2.2.1]heptan-7-yl)methanone] | – | 94 | 134 | 537 | – | – | – | –
9 | O=C(c1cccc(F)c1-n1nccn1)N1[C@@H]2CC[C@H]1[C@H](Nc1ncc(C(F)(F)F)cn1)C2 [Example 269, (3-fluoro-2-(2H-1,2,3-triazol-2-yl)phenyl)((1S,2R,4R)-2-((5-(trifluoromethyl)pyrimidin-2-yl)amino)-7-azabicyclo[2.2.1]heptan-7-yl)methanone] | – | – | – | 1700 | 48 | – | – | 111
10 | O=C(c1ncccc1-n1nccn1)N1[C@@H]2CC[C@H]1[C@H](Nc1cnc(C(F)(F)F)cn1)C2 [Example 288, (3-(2H-1,2,3-triazol-2-yl)pyridin-2-yl)((1S,2R,4R)-2-((5-(trifluoromethyl)pyrazin-2-yl)amino)-7-azabicyclo[2.2.1]heptan-7-yl)methanone] | – | – | – | 1900 | 94 | – | – | 128

— patent US9062078B2, “Substituted 7-azabicyles and their use as orexin receptor modulators” (priority 2013, dated 2015)
